Measured values: patent US12643906B2, “Fused aza-heterocyclic amide compound and use thereof” (CSPC ZHONGQI PHARMACEUTICAL TECHNOLOGY (SHIJIAZHUANG) CO., …, priority 2020, dated 2026)

Legend:
TRKA = biological target: T1, TRKA (Homo sapiens, UniProt P04629); assay: HTRF kinase inhibition assay, TRKA; type: biochemical
T1 construct: purchased Bioduro
Description: (§1) The compound to be tested with a certain concentration gradient and an enzyme solution were successively added into a plate (kinase buffer (1× kinase buffer (Cisbio, Cat #62EZBFDD), pH 7.5; 5 mM MgCl2, 1 mM DTT) was added into negative control wells), and the compound plate was centrifuged at 1000 rpm for 30 seconds. The plate was sealed and incubated in a Constant Temperature Incubator at 25° C. for 30 min. A substrate solution containing TK-Sub-biotin (Cisbio, Cat #61TKOBL) and ATP (Sigma, Cat #R0441) was prepared, the substrate solution was added into a 384-well plate, and the plate was centrifuged at 1000 rpm for 30 seconds. The plate was sealed and incubated in a Constant Temperature Incubator at 25° C. for 60 min.
(§2) TK antibody and XL665 were diluted, mixed and added into the assay plate, and the plate was centrifuged at 1000 rpm for 30 seconds. The plate was sealed and incubated in a Constant Temperature incubator Incubator at 25° C. for 60 min. The assay plate was placed on an Envision reader for reading. (HTRF 665/615 ratio: signal value at 665 nm/signal value at 615 nm) Inhibition=(rationegative control well−ratiocompound well)/(rationegative control well−ratioenzyme-free control well)×100% 1.3 Data Analysis and Curve Fitting
(§3) Data were fitted in XLFit excel add-in version 5.4.0.8 to obtain IC50 values.

ALK = biological target: T2, ALK (Homo sapiens, UniProt Q9UM73); assay: Kinase inhibition assay with fluorescein labeled peptide, ALK; type: biochemical
T2 construct: purchased Carna 08-105
Description: (§4) Compounds were diluted to a certain concentration in DMSO with 4-fold gradients. The compound with a certain concentration, an enzyme solution and DMSO were added into a 384-well plate, and the plate was incubated at room temperature for 10 min. […] The plate was subjected to reading.

TRKA(G667C) = biological target: T3, TRKA(G667C) (Homo sapiens, UniProt P04629, G667C); assay: HTRF kinase inhibition assay, TRKA(G667C); type: biochemical
T3 construct: purchased signalchem
Description: as §1, §2, §3

ROS1 = biological target: T4, ROS1 (Homo sapiens, UniProt P08922); assay: Kinase inhibition assay with fluorescein labeled peptide, ROS1; type: biochemical
T4 construct: purchased Carna 08-163
Description: as §4

[1] = test system: TRK, p-TRK, p-PLCγ1, p-AKT in Ba/F3 LMNA-NTRK1-G595R tumor tissues; assay: In vivo mechanism study, western blot of tumor tissues; design: species or system NuNu mice; settings: 100 mg/kg gavage, tumor taken 0.25-24 h
Description: A total of 3 mice in the control group were selected, and tumor tissues were taken and cryopreserved 4 h after the administration of the vehicle. The compound No. 4 of the present disclosure was administered to other groups at 100 mg/kg, and tumor tissues was taken at 0.25 h, 1 h, 4 h, 8 h, 12 h and 24 h for cryopreservation.
A certain mass of tumor tissue was taken and added into a corresponding volume of protein lysate (RIPA lysate (Thermo Fisher, Cat. No. 89900): protease inhibitor (cOmplete, Mini, EDTA-free, EASYpack; Roche, Cat. No. 04693159001): phosphatase inhibitor (PhosStop, EASY pack; Roche, Cat. No. 04906837001)=8:1:1), homogenized and lysed in ice bath for 30 min. The mixture was subjected to high-speed centrifugation at low temperature, and then the supernatant was taken for BCA protein quantification (procedure according to the BCA protein quantification kit (Qiagen, Cat. No. PA115-01)). Finally, after the protein concentration was adjusted to be uniform by lysate, loading buffer was added, and the mixture was boiled at 100° C. for 10 min.
4-20% of 10-well prefabricated gel was adopted; the sample loading amount was 100 μg; 140 V electrophoresis was performed for 1-1.5 h; the 300 mA wet-transfer was performed for 1.5-2 h; the membrane was blocked with 5% BSA for 2-3 h; incubating with primary antibody overnight at 4° C. […]

Ba/F3 ETV6-NTRK3-G696A = biological target: T5, Ba/F3 ETV6-NTRK3-G696A (Homo sapiens, UniProt Q16288, G696A, cells depend on it); assay: In vitro cell proliferation inhibition (MTT); type: cell-based, murine; settings: 72 h, read-out: IC50 Ba/F3 ETV6-NTRK3-G696A
T5 construct: fused on or other part: P41212 (Transcription factor ETV6)
Description: • Source of 6 kinds of cell lines for the test: KYinno Biotechnology (Beijing) Co., Ltd. • Cell type: murine B cells • Culture medium: RPMI-1640+10% FB S 2. Test Method
Cells in the logarithmic growth phase were harvested and counted using a […]. The cell suspension with a certain density was pipetted uniformly and seeded into a 96-well plate with each well of 100 μL, and shaken to make the cells uniformly disperse into the wells. 100 μL of compound solution with certain concentration gradient was added into each well, and 3 duplicate wells were set for each concentration. The plate was cultured in a CO2 incubator at 37° C. for 72 h. 20 μL of MTT working solution (5 mg/mL) was added into each well, and the plate was placed at 37° C. for 4 h, and centrifuged at 1000 rpm for 5 min by a plate centrifuge. After 180 μL of culture medium was discarded, the plate was added with 150 μL of DMSO, and mixed well with a microplate shaker, the plate bottom was wiped, and optical density (OD) at 550 nm was detected with a microplate reader.

IC50 (TRKA): 0.236 nM
IC50 (ALK): 22 nM
IC50 (TRKA(G667C)): 0.183 nM
IC50 (ROS1): 0.19 nM
GI50 (Ba/F3 ETV6-NTRK3-G696A): 0.466 nM
Compound: O=C(Nc1ccc(N2CCN(C(=O)CO)CC2)cc1)c1cnn2ccc(N3C[C@@H](F)C[C@@H]3c3cc(F)ccc3F)nc12 [Compound 4, 5-((2R,4S)-2-(2,5-difluorophenyl)-4-fluoropyrrolidin-1-yl)-N-(4-(4-(2-hydroxyacetyl)piperazin-1-yl)phenyl)pyrazolo[1,5-a]pyrimidine-3-carboxamide]
phosphorylation of p-PLCγ1/PLCγ1 and p-AKT/AKT in tumor tissues [1]: effectively inhibit
protein level of TRK and p-TRK in tumor tissues [1]: significantly reduce
